Patent US20160115540A1, “PRODRUGS AND DRUGS” (Biogen MA Inc., priority 2013, published 2016)
Counter-ions that a name gives are not always drawn.

Tested on: brain
Assay: Transcriptional profiling, chronic dosing, EAE mice: brain
Format: in vivo
From the text: EAE induction is generally performed by immunization with brain extracts, CNS proteins (such as myelin basic protein), or peptides from such protein emulsified in an adjuvant such as complete Freund's adjuvant, e.g., as described in Linker et al., Brain. 2011 March 134(Pt3): 678-92. […] FIG. 17 depicts exemplary immunophenotyping panels used to analyze various immune cell populations (e.g., T cells, T regulatory cells, NK cells, B cells, myeloid cells). […] The number of independent mice whose tissues were harvested for transcript profiling studies and whose data passed QC is shown in TABLE 15. Animals were exposed to CO2 and whole blood collected via cardiac puncture. Two 100 μl aliquots of whole blood were collected in 1.5 mL microcentrifuge tubes and snap frozen in liquid nitrogen. Peripheral (liver, spleen, kidney and jejunum) and CNS brain (cerebellum, hippocampus, striatum and cortex) tissues were harvested and snap frozen in liquid nitrogen, with special care taken to collect tissues of similar size and from the same location. All samples were stored at -80° C. until RNA extraction was conducted. For RNA preparation, frozen tissues were placed in 2 mL RNAse-free 96-well blocks with 1.5 mL QIAzol Lysis Reagent (QIAgen) and a 3.2 mm stainless steel bead (BioSpec Products, Bartlesville, Okla.). Tissues were disrupted for four cycles of 45 seconds in a Mini-Beadbeater (Biospec Products). RNA was extracted in chloroform and the aqueous phase was mixed with an equal volume of 70% ethanol. Extracted RNA was applied to RNeasy 96 plates and purified by the spin method according to the manufacturer's protocol (RNeasy 96 Universal Tissue Protocol, QIAgen, Hilden Germany). […] Washing and staining of the hybridized arrays were completed as described in the GeneChip Expression analysis technical manual for HT plate arrays using the Genechip® Array Station (Affymetrix, Santa Clara, Calif.) with modifications as described in […] et al. The processed GeneChip® plate arrays were scanned using GeneTitan scanner (Affymetrix, Santa Clara, Calif.). Affymetrix scans were subject to quality control (QC) measures. These tests included a visual inspection of the distribution of raw signal intensities and an assessment of RNA degradation, relative log expression (RLE), and normalized unscaled standard error (NUSE). All sample scans that passed these QC metrics were included in the analysis. All CEL files were subjected to GC-content-based Robust Multi-array Average (GCRMA) normalization (version 2.20.0) (Irizarry R A, et al. Nucleic Acids Res 2003; 31:e15; Li C, et al. Genome Biol 2001; 2:[…]0032). […] Stat Appl Genet Mol Biol 2004; 3:Article3). […] Springer Science+Business Media 2005). Changes in gene expression were studied by applying a linear modeling approach to fit gene expression levels according to the defined groups of samples (e.g. DMF-, MMF-, and Vehicle-treated animals) and Bayesian posterior error analysis as implemented by Smyth (Smyth G K. Stat Appl Genet Mol Biol 2004; 3:Article3). The comparisons considered included: DMF-vs-MMF, DMF-vs-Vehicle, MMF-vs-Vehicle, and Vehicle-vs-Naïve.

| Compound | Number of differentially expressed genes identified: Brain (100 mpk DMF-vs-90 mpk MMF, 7 h after last dosing) | Number of differentially expressed genes identified: Brain (100 mpk DMF-vs-90 mpk MMF, 12 h after last dosing) | Number of differentially expressed genes identified: Brain (100 mpk DMF-vs-Vehicle, 7 h after last dosing) | Number of differentially expressed genes identified: Brain (100 mpk DMF-vs-Vehicle, 12 h after last dosing) | Number of differentially expressed genes identified: Brain (90 mpk MMF-vs-Vehicle, 7 h after last dosing) | Number of differentially expressed genes identified: Brain (90 mpk MMF-vs-Vehicle, 12 h after last dosing) |
| --- | --- | --- | --- | --- | --- | --- |
| COC(=O)/C=C/C(=O)OC [DMF, dimethyl fumarate] | 31 | 0 | 6 | 0 |  |  |
| COC(=O)/C=C/C(=O)O [MMF, monomethyl fumarate] |  |  |  |  | 158 | 0 |
